In PMC12112332, “Characterization of Novel and Known Activators of Cannabinoid Receptor Subtype 2 Reveals Mixed Pharmacology That Differentiates Mycophenolate Mofetil and GW-842,166X from MDA7” (International Journal of Molecular Sciences, 2025):
Read-outs that look alike come from different tables or passages of the source.

Experiments:
rCB1 = target: T1, rCB1 (Rattus norvegicus, UniProt P20272); experiment: Thallium flux assay in HEK/GIRK cells expressing rCB1; type: cell-based; details: for rCB1 GIRK (−) 2-AG % Max ± SEM / rCB1 GIRK (+) 2-AG % Max ± SEM: % of maximal 2-AG response
T1 construct: expressed in transfected cells; host or cells: HEK293 cells stably co-expressing GIRK channels
T1 sequence (P20272 whole entry): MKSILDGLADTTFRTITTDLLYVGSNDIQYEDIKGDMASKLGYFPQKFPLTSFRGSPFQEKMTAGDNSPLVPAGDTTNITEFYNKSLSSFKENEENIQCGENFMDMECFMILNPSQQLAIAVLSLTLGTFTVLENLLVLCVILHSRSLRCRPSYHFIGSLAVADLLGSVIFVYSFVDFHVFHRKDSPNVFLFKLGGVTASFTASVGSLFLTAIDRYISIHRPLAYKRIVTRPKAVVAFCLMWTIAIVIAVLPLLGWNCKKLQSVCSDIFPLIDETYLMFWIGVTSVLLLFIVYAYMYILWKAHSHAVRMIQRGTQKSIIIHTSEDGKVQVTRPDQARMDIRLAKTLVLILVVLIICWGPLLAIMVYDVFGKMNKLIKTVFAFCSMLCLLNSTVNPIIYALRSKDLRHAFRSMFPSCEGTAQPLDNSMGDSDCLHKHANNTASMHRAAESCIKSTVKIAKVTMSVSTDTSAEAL
Procedure: The cell lines used in this manuscript were generated in-house. Their preparation is described in detail in Qi et al.. Cells were used for 10 passages for experiments and day-to-day signals in both the CB2 and CB1 lines were stable across this passage number. Human Embryonic Kidney (HEK) 293 cells stably expressing rCB2 and the G protein Gqi9 were maintained in Dulbecco’s modified Eagle media (DMEM) containing 10% FBS, 1× antibiotic/antimycotic, 20 mM HEPES, 1 mM sodium pyruvate, 2 mM L-glutamine, 1× non-essential amino acids, 700 µg/mL G418 sulfate, and 0.6 µg/mL puromycin. HEK cells stably expressing rCB2 or rCB1 and the G protein inwardly rectifying potassium channel (GIRK) were maintained in DMEM/F12 containing 10% FBS, 1× antibiotic/antimycotic, 20 mM HEPES, 1 mM sodium pyruvate, 2 mM L-glutamine, 1× non-essential amino acids, 700 µg/mL G418 sulfate, and 0.6 µg/mL puromycin. Cells were monitored by periodic PCR detection using the LookOut Mycoplasma PCR Detection Kit (Sigma-Aldrich, St Louis, MO, USA) to eliminate potential mycoplasma infection. Reagents were obtained from Invitrogen (Waltham, MA, USA) unless otherwise noted.
Thallium flux assays were performed as previously described in Niswender et al., 2008 [31]. HEK/GIRK cells stably expressing rCB1 or rCB2 (15,000 cells/20 µL/well) were seeded in 384-well, poly-D-lysine coated assay plates (Corning BioCoat®) (Corning Inc., Corning, NY, USA) and incubated overnight at 37 °C in the presence of 5% CO2. The next day, the medium was removed and replaced with 20 μL of 1.2 µM thallium-sensitive dye Thallos-AM (ION biosciences, San Marcos, TX, USA), prepared as a DMSO stock solution mixed in a 1:1 ratio with 10% (w/v) pluronic acid F-127, and diluted in assay buffer (Hank’s balanced salt solution, 20 mM HEPES, pH 7.4). Following 1 h at room temperature, the dye solution was removed and replaced with 20 µL assay buffer. For screening of the FDA-Approved Drug Collection, 10 mM DMSO stocks of library compounds were transferred to daughter plates using an Echo acoustic plate reformatter (Labcyte, Sunnyvale, CA, USA) and diluted in assay buffer to a 2× final concentration. For concentration–response curve experiments, compounds were serially diluted 1:3 into 10-point concentration–response curves in DMSO, transferred to daughter plates using the Echo or Bravo Automated Liquid Handling Platform (Agilent Technologies, Santa Clara, CA, USA), and diluted in assay buffer to a 2× final concentration. Thallium flux was measured using the Hamamatsu FDSS/μCELL Kinetic Plate Imager (Bridgewater, NJ, USA). After the establishment of a fluorescence baseline (excitation, 480 ± 20 nm; emission, 540 ± 30 nm), 20 µL (2×) of test compound was added to the cells at 1 s and the response was measured. After 140 s, 10 µL (5×) of an EC20 concentration of agonist (PAM mode) or vehicle (AGO mode) in thallium stimulus buffer (125 mM NaHCO3, 1.8 mM CaSO4, 1 mM MgSO4, 5 mM glucose, 12 mM Tl2SO4, 10 mM HEPES, 0.5% BSA, pH 7.4) was added to the cells, and the response of the cells was measured for an additional 159 s (data were acquired for 300 s total at 0.5 Hz for 140 s and 1 Hz for 160 s). Raw kinetic data were analyzed in a multi-step process: (1) Fluorescence readings for each time point in a well were divided by the fluorescence reading at the initial time point to account for differences in cell number, non-uniform illumination, and dye-loading. (2) The slope value for each kinetic trace was calculated for the time window of 145–155 s, a window occurring directly after the second addition. (3) The average slope was calculated for wells containing vehicle and this value was subtracted from all wells. (4) The vehicle-subtracted slope was normalized to the relevant maximal agonist signal for each assay. […]

rat CB2 = target: T2, rat CB2 (Rattus norvegicus, UniProt Q9QZN9); experiment: β-arrestin recruitment assay (PathHunter, Eurofins) in rat CB2 cells; type: cell-based; set-up: expressed in transfected cells; details: for rCB2 β-Arrestin (−) CP55,940 % Max / rCB2 β-Arrestin (+) CP55,940 % Max: % of maximal CP55,940 response
T2 sequence (Q9QZN9 1-360): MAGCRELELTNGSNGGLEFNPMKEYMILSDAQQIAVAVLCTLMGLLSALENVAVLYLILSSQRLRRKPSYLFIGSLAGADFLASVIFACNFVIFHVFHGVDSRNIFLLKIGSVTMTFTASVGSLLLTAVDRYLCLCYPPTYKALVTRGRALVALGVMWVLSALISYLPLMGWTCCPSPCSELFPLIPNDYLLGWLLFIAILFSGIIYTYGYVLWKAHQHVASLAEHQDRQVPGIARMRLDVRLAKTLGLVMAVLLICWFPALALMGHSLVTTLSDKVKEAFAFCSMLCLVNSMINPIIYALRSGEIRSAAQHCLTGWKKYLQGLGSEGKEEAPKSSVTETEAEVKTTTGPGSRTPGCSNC
Procedure: Assays were performed by Eurofins Discovery (Freemont, CA, USA). PathHunter cell lines were expanded from freezer stocks according to standard procedures. Rat CB2 cells were seeded in a total volume of 20 μL into white-walled, 384-well microplates and incubated at 37 °C for the appropriate time prior to testing. For agonist determination, cells were incubated with the sample to induce a response. Intermediate dilution of sample stocks was performed to generate a 5× sample in assay buffer. A total of 5 μL of 5× sample was added to the cells and incubated at 37 °C or room temperature for at least 120 min. The final assay vehicle concentration was 1%. For allosteric modulator determination, cells were pre-incubated with the sample followed by agonist challenge at the EC20. Intermediate dilution of sample stocks was performed to generate a 5× sample in assay buffer. A total of 5 μL of 5× sample was added to cells and incubated at 37 °C or room temperature for 15 min. Vehicle concentration was 1%. Then, 5 μL of 6× EC20 agonist in assay buffer was added to the cells and incubated at 37 °C or room temperature for at least 120 min.
The assay signal was generated through a single addition of 15 μL (50% v/v) of PathHunter Detection reagent cocktail, followed by a one-hour incubation at room temperature. Microplates were read following signal generation with a PerkinElmer Envision^TM instrument for chemiluminescent signal detection.
Compound activity was analyzed using the CBIS data analysis suite (ChemInnovation). For agonist mode assays, percentage activity was calculated using the following formula: % Activity = 100% × (mean RLU of test sample − mean RLU of vehicle control)/(mean MAX control ligand − mean RLU of vehicle control).
For positive allosteric mode assays, percentage modulation was calculated using the following formula: % Modulation = 100% × ((mean RLU of test sample − mean RLU of EC20 control)/(mean RLU of MAX control ligand − mean RLU of EC20 control)).

[1] = rCB2 β-Arrestin (+) CP55,940 pEC50, presence of EC20 CP55,940
[2] = rCB2 β-Arrestin (−) CP55,940 pEC50, absence of CP55,940

rCB1 GIRK (+) 2-AG pEC50 ± SEM (rCB1; presence of EC20 2-AG)	EC50 (rCB1; presence of EC20 2-AG, read-out: rCB1 GIRK (+) 2-AG pEC50 ± SEM (converted)) [nM]	EC50 (rat CB2; absence of CP55,940, read-out: rCB2 β-Arrestin (−) CP55,940 pEC50 (converted)) [nM]	EC50 (rat CB2; presence of EC20 CP55,940, read-out: rCB2 β-Arrestin (+) CP55,940 pEC50 (converted)) [nM]	SMILES	rCB1 GIRK (−) 2-AG pEC50 ± SEM (rCB1; absence of 2-AG)	rCB2 β-Arrestin (−) CP55,940 % Max (rat CB2; absence of CP55,940) [%]	rCB2 β-Arrestin (+) CP55,940 % Max (rat CB2; presence of EC20 CP55,940) [%]	EC50 (rat CB2; [1]) [nM]	EC50 (rat CB2; [2]) [nM]	rCB1 GIRK (−) 2-AG % Max ± SEM (rCB1; absence of 2-AG) [%]	rCB1 GIRK (+) 2-AG % Max ± SEM (rCB1; presence of EC20 2-AG) [%]	EC50 (rCB1; rCB1 GIRK EC50 in absence of 2-AG, absence of 2-AG) [nM]	EC50 (rCB1; rCB1 GIRK EC50 in presence of 2-AG, presence of EC20 2-AG) [nM]
				CC1(Cc2ccccc2)COc2cc(C(=O)N3CCCCC3)ccc21 (stereo not drawn) [MDA7, 1-[(3-benzyl-3-methyl-2,3-dihydro-1-benzofuran-6-yl)carbonyl]piperidine]		38	40	> 10000	47.9	50 ± 2	48 ± 2	477	395
< 5.0	> 10000	1150	1350	COc1c(C)c2c(c(O)c1C/C=C(\C)CCC(=O)OCCN1CCOCC1)C(=O)OC2 [Mycophenolate mofetil]	< 5.0	114	113			−15 ± 3	−5.5 ± 1.1		
Inactive				COc1c(C)c2c(c(O)c1C/C=C(\C)CCC(=O)O)C(=O)OC2 [Mycophenolic acid]									

SMILES	rCB1 GIRK (+) 2-AG pEC50 ± SEM (rCB1; presence of EC20 2-AG)	EC50 (rCB1; presence of EC20 2-AG, read-out: rCB1 GIRK (+) 2-AG pEC50 ± SEM (converted)) [nM]	EC50 (rat CB2; absence of CP55,940, read-out: rCB2 β-Arrestin (−) CP55,940 pEC50 (converted)) [nM]	EC50 (rat CB2; presence of EC20 CP55,940, read-out: rCB2 β-Arrestin (+) CP55,940 pEC50 (converted)) [nM]	rCB1 GIRK (−) 2-AG pEC50 ± SEM (rCB1; absence of 2-AG)	rCB2 β-Arrestin (−) CP55,940 % Max (rat CB2; absence of CP55,940) [%]	rCB2 β-Arrestin (+) CP55,940 % Max (rat CB2; presence of EC20 CP55,940) [%]	EC50 (rat CB2; [1]) [nM]	EC50 (rat CB2; [2]) [nM]	rCB1 GIRK (−) 2-AG % Max ± SEM (rCB1; absence of 2-AG) [%]	rCB1 GIRK (+) 2-AG % Max ± SEM (rCB1; presence of EC20 2-AG) [%]	EC50 (rCB1; rCB1 GIRK EC50 in absence of 2-AG, absence of 2-AG) [nM]	EC50 (rCB1; rCB1 GIRK EC50 in presence of 2-AG, presence of EC20 2-AG) [nM]
O=C(NCC1CCOCC1)c1cnc(Nc2ccc(Cl)cc2Cl)nc1C(F)(F)F [GW-842,166X, 2-(2,4-dichloroanilino)-N-(oxan-4-ylmethyl)-4-(trifluoromethyl)pyrimidine-5-carboxamide]	Inactive				Inactive	97	120	631	162				
